Assay results published in patent publication US7279470B2 (priority 2001, dated 2007).

What was measured:
[1] = target: T1, Hormone-sensitive lipase (HSL) (Homo sapiens, UniProt Q05469); assay type: biochemical; conditions: 10 μM concentration; percent activity relative to an un-inhibited sample (no compound); 3H-Triolein substrate, 25° C.
T1 sequence (Q05469 1-1076): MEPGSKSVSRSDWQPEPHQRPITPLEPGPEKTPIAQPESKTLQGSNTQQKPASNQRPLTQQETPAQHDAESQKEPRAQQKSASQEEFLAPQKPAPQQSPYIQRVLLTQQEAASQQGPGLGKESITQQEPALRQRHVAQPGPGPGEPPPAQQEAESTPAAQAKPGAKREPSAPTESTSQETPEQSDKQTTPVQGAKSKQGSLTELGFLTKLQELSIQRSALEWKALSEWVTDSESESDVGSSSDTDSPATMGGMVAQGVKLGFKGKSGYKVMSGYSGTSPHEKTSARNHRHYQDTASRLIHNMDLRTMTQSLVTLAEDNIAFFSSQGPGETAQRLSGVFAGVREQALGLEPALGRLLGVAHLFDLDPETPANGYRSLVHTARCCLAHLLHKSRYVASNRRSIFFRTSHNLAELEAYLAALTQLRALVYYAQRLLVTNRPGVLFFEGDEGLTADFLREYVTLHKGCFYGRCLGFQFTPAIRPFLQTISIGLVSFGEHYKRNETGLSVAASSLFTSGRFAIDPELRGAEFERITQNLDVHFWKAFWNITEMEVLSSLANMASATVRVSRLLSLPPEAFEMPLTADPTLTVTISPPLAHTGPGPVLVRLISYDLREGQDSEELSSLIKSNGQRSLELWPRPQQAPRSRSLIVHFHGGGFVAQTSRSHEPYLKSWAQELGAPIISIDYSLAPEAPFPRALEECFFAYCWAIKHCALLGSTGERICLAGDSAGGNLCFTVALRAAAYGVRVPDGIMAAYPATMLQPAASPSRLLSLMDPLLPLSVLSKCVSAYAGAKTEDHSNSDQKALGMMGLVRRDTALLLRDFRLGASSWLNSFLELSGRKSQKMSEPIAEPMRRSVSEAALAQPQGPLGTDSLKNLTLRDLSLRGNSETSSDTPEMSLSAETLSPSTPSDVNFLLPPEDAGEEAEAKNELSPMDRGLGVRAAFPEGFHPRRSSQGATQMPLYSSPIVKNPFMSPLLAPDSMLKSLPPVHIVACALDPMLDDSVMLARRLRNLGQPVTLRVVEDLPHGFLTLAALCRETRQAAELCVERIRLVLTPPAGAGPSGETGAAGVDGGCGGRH
Description: Materials. The Hormone-sensitive lipase was provided by Dr. Cecilia Holm, from Lund University Sweden or produced and purified by Novo Nordisk (NN) using the reagents and protocols used by Dr. Holm. The substrates used are: ^3H-labeled triolein (TO) from Amersham, Buckinghamshire, U.K. cat No. TRA191; 5-20 Ci/mmol dissolved in toluene, triolein (Sigma, Cat. No. T-1740), fluorochrome-labeled triacylglyceride (cis-octadec-9-enoic acid 2-[12-(7-nitrobenzo[12,5]oxadiazol-4-ylamino)dodecanoyloxy]-1-cis-octadec-9-enoyloxymethyl-ethyl ester) prepared by Novo Nordisk (NN) by conventional methods, and 1,3-(di[^3H]-stearin), 2-(PEG-Biotin)glycerol prepared in collaboration with Amersham Pharmacia Biotech, UK and described in WO 01/073442. Phosphatidyl choline (PC) and phosphatidyl inositol (PI) are from Sigma (St Luis MO cat. Nos. P-3556 and P-5954 respectively). All other reagents are of commercial grade and obtained from various commercial sources.
3180.2: Assay for determination of percent inhibition by compound at 10 μM concentration. A lipid emulsion with ^3H-Triolein and phospholipid is used as substrate with a standard cencentration of highly purified HSL. BSA is added as product receptor. The substrate is prepared as follows: […]

[2] = target: T1, Hormone-sensitive lipase (HSL); assay type: biochemical; conditions: 10 μM sample concentration; percent activity relative to a non-inhibited sample (no compound); 30 min preincubation 25° C., 120 min at 37° C.
Experimental: Materials. The Hormone-sensitive lipase was provided by Dr. Cecilia Holm, from Lund University Sweden or produced and purified by Novo Nordisk (NN) using the reagents and protocols used by Dr. Holm. […] All other reagents are of commercial grade and obtained from various commercial sources.
BSA is added as product receptor. The transfer of the fluorochrome from the lipid phase to the water (BSA) phase changes the fluorescent properties of the fluorochrome. The changes can be monitored on a fluorimeter with an excitation wavelength of 450 nm and an emission wavelength of 545 nm.
Compound and HSL (20 μL compound, 10 μL enzyme and 70 μL PED-BSA buffer) is preincubated for 30 min at 25° C. before addition of substrate (100 μL). Amount of formed product is measured after 120 min incubation at 37° C.

Molecule | Test 3180.2 HSL % ACTIVITY All [1] [%] | Test 3190.1 HSL_FL % ACTIVITY All [2] [%]
Cc1c(Cc2ccccc2)c(=O)oc2cc(OC(=O)N3CCOCC3)ccc12 [Example 92] | 62 | 
N-Methyl-N-phenethyl-5-ethyl-3-(4-chlorophenyl)-[1,2,4]triazole-1-carboxamide [Example 119] | 10 | 
O=C(Oc1ccc(Oc2ccc3c(C(F)(F)F)cc(C(F)(F)F)nc3n2)cc1)N1CCOCC1 [Example 90, Morpholine-4-carboxylic acid 4-(5,7-bis-trifluoromethyl-[1,8]naphthypyridin-2-yloxy)-phenyl ester] |  | 24
CN(C(=O)Oc1ccc(OC(F)(F)C(F)(F)F)cc1)c1ccccc1 [Example 20] |  | 51
